“And” between values parts separate entries of the source, which are not always exact repeats. Equal values may be shown once.
Tested on: patients with prior myocardial infarction (CARE study)
Assay: CARE aligned analysis (prospective and case/control design, white males): association of genotypes with pravastatin efficacy (Tables 13, 15)
Format: in vivo, human
Conditions: for Pravastatin vs placebo odds ratio, 0 rare alleles / Pravastatin vs placebo odds ratio, 1 rare allele / Pravastatin vs placebo odds ratio, 2 rare alleles / 2 rare alleles n/total (%), pravastatin patients: CARE, F MI/SD/NF MI; for Pravastatin Patients (%) / Pravastatin Patients n/total: WM
Protocol: The data presented in Table 8 based on an association of genotypes with pravastatin efficacy of the CARE samples were further analyzed and presented in Table 13. The further analysis was performed to align the data obtained from the analysis of the CARE samples, which was a prospective study, to the analysis of the WOSCOP samples, which was a case/control study. Table 13 also presents an analysis of the association of genotypes with pravastatin efficacy in the WOSCOPs samples. Relative to the analysis performed on the data presented in Table 8, there are two significant differences to determine if the SNP influenced pravastatin efficacy. Data obtained from the CARE samples were separated by study design into two groups, those in the prospective study design group and those in the case/control study design group. The original care study contained 16 protocol defined cardiovascular disease defined endpoints and 150 other phenotypes. […] The control groups used to compare the data were also divided into two groups, the “all possible” control group and the “cleaner” control group. […] Because the participants in the WOSCOPs trial were all white males, only data obtained from white males in the CARE study were analysed. Data from the “all possible” and “cleaner” controls were compared to data obtained from the cases in the prospective study design while only data from “cleaner” controls were compared to cases in the case/control study design. The data from the case/control cohorts were analysed using conditional logistic regression (as opposed to logistic regression used for the original anaylsis).
The anaylsis was refined as described for both Tables 13 and 14.

[1] = KLK14 hCV16044337, 0 Rare Alleles, CARE Case/Control, F&NF MI, All Possible controls
[2] = KLK14 hCV16044337, 0 Rare Alleles, CARE Case/Control, F&NF MI, Cleaner controls
[3] = KLK14 hCV16044337, 0 Rare Alleles, CARE Prospective, F&NF MI, All Possible controls
[4] = KLK14 hCV16044337, 0 Rare Alleles, CARE Prospective, F&NF MI, Cleaner controls
[5] = KLK14 hCV16044337, 1 Rare Allele, CARE Case/Control, F&NF MI, All Possible controls
[6] = KLK14 hCV16044337, 1 Rare Allele, CARE Case/Control, F&NF MI, Cleaner controls
[7] = KLK14 hCV16044337, 1 Rare Allele, CARE Prospective, F&NF MI, All Possible controls
[8] = KLK14 hCV16044337, 1 Rare Allele, CARE Prospective, F&NF MI, Cleaner controls
[9] = KLK14 hCV16044337, Case/Control
[10] = LPA hCV11225994, 0 Rare Alleles, CARE Case/Control, F&NF MI, Cleaner controls
[11] = LPA hCV11225994, 1 Rare Allele, CARE Case/Control, F&NF MI, Cleaner controls
[12] = MYH7 hCV25629396, 0 Rare Alleles, CARE Case/Control, F&NF MI, Cleaner controls
[13] = MYH7 hCV25629396, 0 Rare Alleles, CARE Prospective, F&NF MI, Cleaner controls
[14] = MYH7 hCV25629396, 1 Rare Allele, CARE Case/Control, F&NF MI, All Possible controls
[15] = MYH7 hCV25629396, 1 Rare Allele, CARE Case/Control, F&NF MI, Cleaner controls
[16] = MYH7 hCV25629396, 1 Rare Allele, CARE Prospective, F&NF MI, All Possible controls
[17] = MYH7 hCV25629396, 1 Rare Allele, CARE Prospective, F&NF MI, Cleaner controls
[18] = NOS3 hCV3219460, 0 Rare Alleles, CARE Case/Control, F&NF MI, All Possible controls
[19] = NOS3 hCV3219460, 0 Rare Alleles, CARE Case/Control, F&NF MI, Cleaner controls
[20] = NOS3 hCV3219460, 0 Rare Alleles, CARE Prospective, F&NF MI, All Possible controls
[21] = NOS3 hCV3219460, 0 Rare Alleles, CARE Prospective, F&NF MI, Cleaner controls
[22] = NOS3 hCV3219460, 1 Rare Allele, CARE Case/Control, F&NF MI, All Possible controls
[23] = NOS3 hCV3219460, 1 Rare Allele, CARE Case/Control, F&NF MI, Cleaner controls
[24] = NOS3 hCV3219460, 1 Rare Allele, CARE Prospective, F&NF MI, All Possible controls

CC[C@H](C)C(=O)O[C@H]1C[C@H](O)C=C2C=C[C@H](C)[C@H](CC[C@@H](O)C[C@@H](O)CC(=O)O)[C@H]21 [pravastatin]
Pravastatin vs placebo odds ratio, 0 rare alleles (KDR hCV22271999, Case/Control): 0.67 and 0.59 | Pravastatin vs placebo odds ratio, 1 rare allele (KDR hCV22271999, Case/Control): 1.69 | Pravastatin vs placebo odds ratio, 2 rare alleles (KDR hCV22271999, Case/Control): 0.38 and 0.31 | 2 rare alleles n/total (%), pravastatin patients (KDR hCV22271999, Prospective): (9.1%) | Pravastatin vs placebo odds ratio, 0 rare alleles (KDR hCV22271999, Prospective): 0.61 | Pravastatin vs placebo odds ratio, 1 rare allele (KDR hCV22271999, Prospective): 1.41 | Pravastatin vs placebo odds ratio, 2 rare alleles (KDR hCV22271999, Prospective): 0.27 | Pravastatin Patients (%) [1]: (10.9%) | Pravastatin Patients n/total [1]: 60/548 | Pravastatin Patients (%) [2]: (16.4%) | Pravastatin Patients n/total [2]: 60/365 | Pravastatin Patients (%) [3]: (10.7%) | Pravastatin Patients n/total [3]: 60/560 | Pravastatin Patients (%) [4]: (16.0%) | Pravastatin Patients n/total [4]: 60/374 | Pravastatin Patients (%) [5]: (10.4%) | Pravastatin Patients n/total [5]: 57/547 | Pravastatin Patients (%) [6]: (14.3%) | Pravastatin Patients n/total [6]: 57/399 | Pravastatin Patients (%) [7]: (10.3%) | Pravastatin Patients n/total [7]: 57/556 | Pravastatin Patients (%) [8]: (14.1%) | Pravastatin Patients n/total [8]: 57/404 | Pravastatin vs placebo odds ratio, 0 rare alleles [9]: 1.02 and 0.98 | Pravastatin vs placebo odds ratio, 1 rare allele [9]: 0.85 and 0.74 | Pravastatin vs placebo odds ratio, 2 rare alleles [9]: 0.23 | Pravastatin vs placebo odds ratio, 0 rare alleles (KLK14 hCV16044337, Prospective): 1.04 and 0.97 | Pravastatin vs placebo odds ratio, 1 rare allele (KLK14 hCV16044337, Prospective): 0.86 and 0.73 | Pravastatin vs placebo odds ratio, 2 rare alleles (KLK14 hCV16044337, Prospective): 0.22 and 0.23 | Pravastatin Patients (%) [10]: (14.0%) | Pravastatin Patients n/total [10]: 88/627 | Pravastatin Patients (%) [11]: (15.4%) | Pravastatin Patients n/total [11]: 29/188 | 2 Rare Alleles (%), Pravastatin Patients (LPA hCV11225994, CARE Case/Control, F&NF MI): (41.2%) | 2 rare alleles n/total (%), pravastatin patients (MICA hCV25474101, Case/Control): (37.5%) | Pravastatin vs placebo odds ratio, 0 rare alleles (MICA hCV25474101, Case/Control): 0.67 | Pravastatin vs placebo odds ratio, 1 rare allele (MICA hCV25474101, Case/Control): 0.72 | Pravastatin vs placebo odds ratio, 2 rare alleles (MICA hCV25474101, Case/Control): 6.64 | Pravastatin Patients (%) (MYH7 hCV25629396, 0 Rare Alleles, CARE Case/Control, F&NF MI, All Possible controls): (10.0%) | Pravastatin Patients (%) [12]: (14.5%) | Pravastatin Patients n/total [12]: 118/815 | Pravastatin Patients (%) (MYH7 hCV25629396, 0 Rare Alleles, CARE Prospective, F&NF MI, All Possible controls): (9.8%) | Pravastatin Patients (%) [13]: (14.2%) | Pravastatin Patients n/total [13]: 118/829 | Pravastatin Patients (%) [14]: (29.0%) | Pravastatin Patients n/total [14]: 9/31 | Pravastatin Patients (%) [15]: (40.9%) | Pravastatin Patients n/total [15]: 9/22 | Pravastatin Patients (%) [16]: (29.0%) | Pravastatin Patients n/total [16]: 9/31 | Pravastatin Patients (%) [17]: (40.9%) | Pravastatin Patients n/total [17]: 9/22 | Pravastatin vs placebo odds ratio, 0 rare alleles (MYH7 hCV25629396, Case/Control): 0.75 and 0.67 | Pravastatin vs placebo odds ratio, 1 rare allele (MYH7 hCV25629396, Case/Control): 12.05 and 11.70 | Pravastatin vs placebo odds ratio, 0 rare alleles (MYH7 hCV25629396, Prospective): 0.75 and 0.66 | Pravastatin vs placebo odds ratio, 1 rare allele (MYH7 hCV25629396, Prospective): 13.41 and 14.00 | Pravastatin Patients (%) [18]: (10.0%) | Pravastatin Patients n/total [18]: 53/529 | Pravastatin Patients (%) [19]: (14.8%) | Pravastatin Patients n/total [19]: 53/359 | Pravastatin Patients (%) [20]: (9.8%) | Pravastatin Patients n/total [20]: 53/539 | Pravastatin Patients (%) [21]: (14.4%) | Pravastatin Patients n/total [21]: 53/368 | Pravastatin Patients (%) [22]: (12.3%) | Pravastatin Patients n/total [22]: 64/520 | Pravastatin Patients (%) [23]: (17.6%) | Pravastatin Patients n/total [23]: 64/363 | Pravastatin Patients (%) [24]: (12.1%) | Pravastatin Patients n/total [24]: 64/527 | Pravastatin Patients (%) (NOS3 hCV3219460, 1 Rare Allele, CARE Prospective, F&NF MI, Cleaner controls): (17.5%)

— patent US9932637B2, “Genetic polymorphisms associated with cardiovascular disorders and drug response, methods of detection and uses thereof” (CELERA CORPORATION, priority 2003, dated 2018)
